Results as given in patent US11767341B2, “Lincosamide antibiotics and uses thereof” (President and Fellows of Harvard College, priority 2017, dated 2023).
Values after ≈ are worked out from the molar mass of the structure shown. Like-named read-outs stand apart in the source and are kept apart here.

Key:
Assay in all cases: MIC determination
Format in all cases: cell-based
S. aureus ATCC 29213 = details: Staphylococcus aureus
S. aureus BAA 977 iErmA = details: Staphylococcus aureus, BAA977
[1] = system: S. aureus MP-549 msr(a) USA 300; details: Staphylococcus aureus, USA300, S. aureus MP-549 msr(a) USA 300
[2] = system: S. aureus Micromyx USA 300; details: Staphylococcus aureus, USA300; S. aureus Micromyx USA 300; read-out: MIC
S. aureus MMX 3035 cErmA = details: Staphylococcus aureus, MMX3035CERMA; S. aureus MMX 3035 cErmA; read-out: MIC
S. pneumoniae ATCC 49619 = details: Streptococcus pneumoniae, ATCC49619; S. pneumoniae ATCC 49619; read-out: MIC
[3] = system: S. pneumoniae MMX 3028 cErmB; details: Streptococcus pneumoniae, MMX3028CERMB
[4] = system: S. pneumoniae MMX 3031 cMefA; details: Streptococcus pneumoniae, MMX3031CMEFA
S. pyogenes ATCC 19615 = details: Streptococcus pyogenes, ATCC19615; S. pyogenes ATCC 19615; read-out: MIC
[5] = system: S. pyogenes MMX 946 Macrolide-Resistant; details: Streptococcus pyogenes; S. pyogenes MMX 946 Macrolide-Resistant (MacRes); read-out: MIC
E. faecalis ATCC 29212 = details: Enterococcus faecalis, ATCC29212
[6] = system: E. faecalis MMX 847 Macrolide-Resistant; details: Enterococcus faecalis
C. difficile BAA 1805 = details: Clostridioides difficile, BAA1805
B. fragilis ATCC 25285 = details: Bacteroides fragilis, ATCC25285; B. fragilis ATCC 25285; read-out: MIC
K. pneumoniae ATCC 10031 = details: Klebsiella pneumoniae, ATCC10031
E. coli ATCC 25922 = details: Escherichia coli
[7] = system: E. coli MMX TolC parent strain; details: Escherichia coli
E. coli MMX 0121 ΔTolC = details: Escherichia coli
E. coli MP-9 ΔTolC = details: Escherichia coli
[8] = system: E. coli MP-74 LptD mutant; details: Escherichia coli
P. aeruginosa ATCC 27853 = details: Pseudomonas aeruginosa, ATCC27853
[9] = system: P. aeruginosa MMX Mex parent strain; details: Pseudomonas aeruginosa
[10] = system: P. aeruginosa MMX 3476 Δmex; details: Pseudomonas aeruginosa
H. influenzae ATCC 49247 = details: Haemophilus influenzae, ATCC49247; H. influenzae ATCC 49247; read-out: MIC
[11] = system: S. aureus MP-513 clinical cErm; details: Staphylococcus aureus
[12] = ATCC29213, S. aureus ATCC 29213, read-out: MIC
[13] = K. pneumoniae ATCC 10031, read-out: MIC

Row | SMILES | MIC (S. aureus ATCC 29213; [12]) | MIC (S. aureus BAA 977 iErmA) | MIC [1] | MIC [2] | MIC (S. aureus MMX 3035 cErmA) | MIC (S. pneumoniae ATCC 49619) | MIC [4] | MIC (S. pyogenes ATCC 19615) | MIC [5] | MIC (E. faecalis ATCC 29212) | MIC (B. fragilis ATCC 25285) | MIC (K. pneumoniae ATCC 10031; [13]) | MIC (E. coli MMX 0121 ΔTolC) | MIC (E. coli MP-9 ΔTolC) | MIC [10] | MIC (H. influenzae ATCC 49247) | MIC (E. coli ATCC 25922; ATCC25922) | MIC (P. aeruginosa ATCC 27853) | MIC [11] | MIC (K. pneumoniae ATCC 10031) | other results
1 | CSC1O[C@H]([C@H](NC(=O)[C@H]2NC[C@@H]3C[C@H]4C[C@H]4CO[C@H]32)[C@H](C)Cl)C(O)C(O)[C@H]1O (stereo in doubt) [FSA-507007] | 0.25 µg/mL (≈ 0.554 µM) | 0.5 µg/mL (≈ 1.11 µM) | 0.25 µg/mL (≈ 0.554 µM) | 0.12 µg/mL (≈ 0.266 µM) | > 64 µg/mL | 0.12 µg/mL (≈ 0.266 µM) | 0.12 µg/mL (≈ 0.266 µM) | ≤ 0.06 µg/mL | 32 µg/mL (≈ 71 µM) | 16 µg/mL (≈ 35.5 µM) | 32 µg/mL (≈ 71 µM) | > 64 µg/mL | 8 µg/mL (≈ 17.7 µM) | 16 µg/mL (≈ 35.5 µM) | 64 µg/mL (≈ 142 µM) | 2 µg/mL (≈ 4.43 µM) | – | – | – | – | MIC [3]: 64 µg/mL (≈ 142 µM); MIC ([6]; E. faecalis MMX 847 Macrolide-Resistant (MacRes), read-out: MIC): > 64 µg/mL; MIC (C. difficile BAA 1805; C. difficile BAA 1805, read-out: MIC): 4 µg/mL (≈ 8.87 µM); MIC (E. coli ATCC 25922; ATCC25922, E. coli ATCC 25922, read-out: MIC): > 64 µg/mL; MIC ([7]; E. coli MMX TolC parent strain, read-out: MIC): > 64 µg/mL; MIC [8]: 16 µg/mL (≈ 35.5 µM); MIC (P. aeruginosa ATCC 27853; P. aeruginosa ATCC 27853, read-out: MIC): > 64 µg/mL; MIC ([9]; P. aeruginosa MMX Mex parent strain, read-out: MIC): > 64 µg/mL
2 | CSC1O[C@H]([C@H](NC(=O)[C@@H]2[C@@H]3OCC=CC[C@H]3CN2C)[C@H](C)Sc2ccc(-c3cncnc3)cc2)C(O)[C@@H](O)[C@H]1O (stereo partly shown) [FSA-212034] | 0.25 µg/mL (≈ 0.415 µM) | 0.25 µg/mL (≈ 0.415 µM) | 0.5 µg/mL (≈ 0.829 µM) | 0.25 µg/mL (≈ 0.415 µM) | 32 µg/mL (≈ 53.1 µM) | ≤ 0.06 µg/mL | ≤ 0.06 µg/mL | ≤ 0.06 µg/mL | 2 µg/mL (≈ 3.32 µM) | 16 µg/mL (≈ 26.5 µM) | 1 µg/mL (≈ 1.66 µM) | 64 µg/mL (≈ 106 µM) | 1 µg/mL (≈ 1.66 µM) | 16 µg/mL (≈ 26.5 µM) | > 64 µg/mL | 4 µg/mL (≈ 6.64 µM) | > 64 µg/mL | > 64 µg/mL | – | – | MIC ([3]; S. pneumoniae MMX 3028 cErmB, read-out: MIC): 4 µg/mL (≈ 6.64 µM); MIC [6]: > 64 µg/mL; MIC (C. difficile BAA 1805): 0.5 µg/mL (≈ 0.829 µM); MIC [7]: > 64 µg/mL; MIC [9]: > 64 µg/mL
3 | CSC1O[C@H]([C@H](NC(=O)[C@H]2NC[C@@H]3CNCCO[C@H]32)[C@H](C)Cl)C(O)C(O)[C@H]1O (stereo partly shown) [FSA-503001] | 64 µg/mL (≈ 145 µM) | > 64 µg/mL | > 64 µg/mL | – | – | – | – | – | – | – | – | – | – | > 64 µg/mL | – | – | > 64 µg/mL | > 64 µg/mL | > 64 µg/mL | > 64 µg/mL | –
4 | CSC1O[C@H]([C@H](NC(=O)[C@H]2NC[C@@H]3CN(C)CCO[C@H]32)[C@H](C)Cl)C(O)C(O)[C@H]1O (stereo partly shown) [FSA-503002] | 64 µg/mL (≈ 141 µM) | > 64 µg/mL | > 64 µg/mL | – | – | – | – | – | – | – | – | – | – | > 64 µg/mL | – | – | > 64 µg/mL | > 64 µg/mL | > 64 µg/mL | > 64 µg/mL | –
5 | CCCN1CCO[C@@H]2[C@H](CN[C@@H]2C(=O)N[C@H]([C@H](C)Cl)[C@H]2OC(SC)[C@H](O)C(O)C2O)C1 (stereo partly shown) [FSA-503003] | 4 µg/mL (≈ 8.3 µM) | 4 µg/mL (≈ 8.3 µM) | 2 µg/mL (≈ 4.15 µM) | – | – | – | – | – | – | – | – | – | – | > 64 µg/mL | – | – | > 64 µg/mL | > 64 µg/mL | > 64 µg/mL | > 64 µg/mL | –
6 | CCNC(=O)N1CCO[C@@H]2[C@H](CN[C@@H]2C(=O)N[C@H]([C@H](C)Cl)[C@H]2OC(SC)[C@H](O)C(O)C2O)C1 (stereo partly shown) [FSA-503004] | – | > 64 µg/mL | > 64 µg/mL | – | – | – | – | – | – | – | – | – | – | > 64 µg/mL | – | – | > 64 µg/mL | > 64 µg/mL | > 64 µg/mL | > 64 µg/mL | MIC (S. aureus ATCC 29213; ATCC29213): > 64 µg/mL
